These results are taken from patent US20250135002A1, “COMPOSITIONS FOR AND METHOD OF EFFECTING TUMOR CELL DEATH” (Duke University, priority 2022, published 2025).

Where two headings read alike, the source gives them in different places.

In the experiment the test system is c1498 murine AML (Acute Myeloid Leukemia) cells. Briefly: Survival of FACS-sorted phosphatidylserine-positive AML cells after cytarabine treatment. The class given is cell-based. The settings on record: Mus musculus, 1 μM cytarabine for 24 hrs, live cell number estimated from growth rates. An excerpt:
FIG. 1A-FIG. 1C show the survival of phosphatidylserine-expressing AML cells. […] The rectangles indicate the sorted cells. […] About 1000 each of the sorted cells were placed into multi-well plates. When the cells reached sufficient numbers, they were counted at different time points to measure their growth rates. The growth rates were then used to estimate the initial live cell numbers. The following formula was used to calculate the minimal initial live cell numbers: Minimal initial cell number=Total cell population/[…] (days to reach the current cell number).
To determine whether cells expressing high-level of PS expression on the cell surface were destined to die, the viability of c1498 murine AML (Acute Myeloid Leukemia) cells treated with cytarabine (part of a classical chemotherapy regimen for human AML) was examined.
Specifically, whether PS-expressing acute myelocytic leukemia (AML) cells survived was examined. FACS was used to identify and sort c1498 cells treated with 1 μM cytarabine (for 24 hrs) and with high PS-expression. The sorted cells were then seeded into 6-well dishes and the ability to survive and proliferate was measured. FIG. 1A-FIG. 1B). […]

In the case of `Nc1ccn([C@@H]2O[C@H](CO)[C@@H](O)[C@@H]2O)c(=O)n1` [cytarabine], the viability at 1 µM is around 8% (FACS-sorted PS+7AAD+ (late apoptotic) cells, read-out: proportion of cytarabine-treated PS+7AAD+ c1498 cells that remained viable and could proliferate); around 25% (FACS-sorted PS+7AAD- (early apoptotic) cells, read-out: proportion of cytarabine-treated PS+7AAD- c1498 cells that remained viable and could proliferate).
